Measurements reported in patent US10597388B2, “Pyridazinone herbicides” (FMC CORPORATION, priority 2014, dated 2020).

Columns and labels:
Type in all cases: in vivo
[1] = test system: barley, winter (winter barley, Hordeum vulgare); assay: Test D controlled growth environment herbicide test, pre- and postemergence; conditions: for Barley, Winter plant response rating / Plant response rating (scale of 0 to 100), Barley, Winter: 31 g ai/ha
Method in brief: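 Pre-emergence: seeds sown in silt loam soil were sprayed with compound in a non-phytotoxic solvent mix containing surfactant. Post-emergence: plants at 2 to 18 cm (1- to 4-leaf stage) in peat moss/vermiculite medium got the same formulation. Visual 0–100 rating versus controls after 14 to 21 d.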

[2] = test system: arrowleaf sida (Sida rhombifolia); assay: Test E greenhouse herbicide test, pre- and postemergence
Method in brief: (§1)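 Visual rating vs untreated controls, 0 = no effect, 100 = complete control, after 14–21 d greenhouse. Pre: seeded silt loam treated with surfactant-containing solvent formulation. Post: 1–4-leaf plants (2–18 cm) in peat/vermiculite medium.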

[3] = test system: dayflower (Virginia (VA) dayflower, Commelina virginica); assay: as above
Method in brief: as §1

[4] = test system: johnsongrass (Sorghum halepense); assay: as above; conditions: Preemergence
Method in brief: as §1

[5] = test system: lambsquarters (Chenopodium album); assay: as above; conditions: Preemergence
Method in brief: as §1

[6] = test system: nightshade (eastern black nightshade, Solanum ptycanthum); assay: as above; conditions: Preemergence
Method in brief: as §1

[7] = test system: sandbur (southem sandbur, Cenchrus echinatus); assay: as above
Method in brief: as §1

[8] = test system: soybean (Glycine max); assay: as above
Method in brief: as §1

[9] = test system: surinam grass (Brachiaria decumbens); assay: as above; conditions: Preemergence
Method in brief: as §1

[10] = test system: waterhemp_RES1 (ALS & Triazine resistant common waterhemp, Amaranthus rudis); assay: Test E greenhouse herbicide test, postemergence
Method in brief: (§2)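 Greenhouse test, 14–21 d after postemergence treatment of 2–18 cm plants; percent control was assessed visually, 0–100, against untreated plants.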

[11] = test system: waterhemp_RES2 (ALS & HPPD resistant common waterhemp, Amaranthus rudis); assay: Test E greenhouse herbicide test, postemergence
Method in brief: as §2

[12] = Postemergence, scale 0 to 100 (0 no effect, 100 complete control)
[13] = Postemergence, 125 g ai/ha, visual rating on scale 0 (no effect) to 100 (complete control), 14 to 21 d
[14] = Postemergence, 250 g ai/ha, scale 0 to 100 (0 no effect, 100 complete control)
[15] = Preemergence, 62 g ai/ha, scale 0 to 100 (0 no effect, 100 complete control)
[16] = Preemergence, 125 g ai/ha, scale 0 to 100 (0 no effect, 100 complete control)
[17] = Preemergence, 250 g ai/ha, scale 0 to 100 (0 no effect, 100 complete control)
[18] = postemergence, 62 g ai/ha, scale 0 to 100, 0 no effect, 100 complete control
[19] = 62 g ai/ha, Postemergence, scale 0 to 100 (0 no effect, 100 complete control)
[20] = 62 g ai/ha, Preemergence, scale 0 to 100 (0 no effect, 100 complete control)
[21] = 125 g ai/ha, Postemergence, scale 0 to 100 (0 no effect, 100 complete control)
[22] = 125 g ai/ha, Preemergence, scale 0 to 100 (0 no effect, 100 complete control)
[23] = 250 g ai/ha, Postemergence, scale 0 to 100 (0 no effect, 100 complete control)
[24] = Postemergence, 31 g ai/ha, visual, scale 0 no effect to 100 complete control
[25] = Preemergence, 31 g ai/ha, scale 0 to 100, 0 no effect, 100 complete control
[26] = Preemergence, 250 g ai/ha, visual, scale 0 no effect to 100 complete control
[27] = 62 g ai/ha, scale 0 to 100 (0 no effect, 100 complete control)
[28] = 125 g ai/ha, scale 0 to 100 (0 no effect, 100 complete control)
[29] = 31 g ai/ha, scale 0 to 100, 0 no effect, 100 complete control
[30] = 250 g ai/ha, visual, scale 0 no effect to 100 complete control
[31] = 31 g ai/ha, visual, scale 0 no effect to 100 complete control
[32] = 250 g ai/ha, scale 0 to 100 (0 no effect, 100 complete control)
[33] = Postemergence, 16 g ai/ha, visual, scale 0 no effect to 100 complete control
[34] = Preemergence, 16 g ai/ha, scale 0 to 100, 0 no effect, 100 complete control
[35] = 16 g ai/ha, scale 0 to 100, 0 no effect, 100 complete control

## Cc1cc(C)c2sc(C)c(-c3c(OC(=O)OCCCl)c(C)nn(C)c3=O)c2c1 [Compound 85]
[1]; [12]
  Barley, Winter plant response rating: 0
[1]; [13]
  Plant response rating, Barley, Winter: 5
[1]; [14]
  Plant response rating, Barley, Winter: 10
[1]; Preemergence
  Plant response rating (scale of 0 to 100), Barley, Winter: 0
[1]; [15]
  Plant response rating, Barley, Winter: 0
[1]; [16]
  Plant response rating, Barley, Winter: 0
[1]; [17]
  Plant response rating, Barley, Winter: 15
[1]; [18]
  Plant response rating, Barley, Winter: 0
[2]; [19]
  Plant response rating, Arrowleaf Sida: 50
[2]; [20]
  Plant response rating, Arrowleaf Sida: 0
[2]; [21]
  Plant response rating, Arrowleaf Sida: 50
[2]; [22]
  Plant response rating, Arrowleaf Sida: 50
[2]; [23]
  Plant response rating, Arrowleaf Sida: 50
[2]; [24]
  Plant response rating, Arrowleaf Sida: 40
[2]; [25]
  Plant response rating, Arrowleaf Sida: 0
[2]; [26]
  Plant response rating, Arrowleaf Sida: 70
[3]; [19]
  Plant response rating, Dayflower, VA: 60
[3]; [20]
  Plant response rating, Dayflower, VA: 0
[3]; [21]
  Plant response rating, Dayflower, VA: 60
[3]; [22]
  Plant response rating, Dayflower, VA: 30
[3]; [23]
  Plant response rating, Dayflower, VA: 80
[3]; [24]
  Plant response rating, Dayflower, VA: 50
[3]; [25]
  Plant response rating, Dayflower, VA: 0
[3]; [26]
  Plant response rating, Dayflower, VA: 75
[4]; [27]
  Plant response rating, Johnsongrass: 0
[4]; [28]
  Plant response rating, Johnsongrass: 0
[4]; [29]
  Plant response rating, Johnsongrass: 0
[4]; [30]
  Plant response rating, Johnsongrass: 0
[5]; [27]
  Plant response rating, Lambsquarters: 100
[5]; [28]
  Plant response rating, Lambsquarters: 100
[5]; [29]
  Plant response rating, Lambsquarters: 70
[5]; [30]
  Plant response rating, Lambsquarters: 100
[6]; [27]
  Plant response rating, Nightshade: 95
[6]; [28]
  Plant response rating, Nightshade: 100
[6]; [29]
  Plant response rating, Nightshade: 95
[6]; [30]
  Plant response rating, Nightshade: 100
[7]; [20]
  Plant response rating, Sandbur: 50
[7]; [21]
  Plant response rating, Sandbur: 70
[7]; [22]
  Plant response rating, Sandbur: 80
[7]; [23]
  Plant response rating, Sandbur: 70
[7]; [24]
  Plant response rating, Sandbur: 40
[7]; [25]
  Plant response rating, Sandbur: 0
[7]; [26]
  Plant response rating, Sandbur: 90
[8]; [20]
  Plant response rating, Soybean: 0
[8]; [21]
  Plant response rating, Soybean: 5
[8]; [22]
  Plant response rating, Soybean: 0
[8]; [23]
  Plant response rating, Soybean: 15
[8]; [24]
  Plant response rating, Soybean: 0
[8]; [25]
  Plant response rating, Soybean: 0
[8]; [26]
  Plant response rating, Soybean: 0
[9]; [27]
  Plant response rating, Surinam Grass: 70
[9]; [28]
  Plant response rating, Surinam Grass: 70
[9]; [29]
  Plant response rating, Surinam Grass: 60
[9]; [30]
  Plant response rating, Surinam Grass: 90
[10]; [31]
  Plant response rating, Waterhemp_RES1: 80
[10]; [28]
  Plant response rating, Waterhemp_RES1: 75
[10]; [32]
  Plant response rating, Waterhemp_RES1: 80
[11]; [31]
  Plant response rating, Waterhemp_RES2: 40
[11]; [28]
  Plant response rating, Waterhemp_RES2: 40
[11]; [32]
  Plant response rating, Waterhemp_RES2: 50

## CCC(=O)Oc1c(C)nn(C)c(=O)c1-c1c(C)sc2ccc(Cl)cc12 [Compound 109]
[1]; [12]
  Barley, Winter plant response rating: 5
[1]; [13]
  Plant response rating, Barley, Winter: 5
[1]; [14]
  Plant response rating, Barley, Winter: 20
[1]; Preemergence
  Plant response rating (scale of 0 to 100), Barley, Winter: 0
[1]; [15]
  Plant response rating, Barley, Winter: 0
[1]; [16]
  Plant response rating, Barley, Winter: 0
[1]; [17]
  Plant response rating, Barley, Winter: 10
[1]; [18]
  Plant response rating, Barley, Winter: 0
[2]; [19]
  Plant response rating, Arrowleaf Sida: 60
[2]; [20]
  Plant response rating, Arrowleaf Sida: 30
[2]; [21]
  Plant response rating, Arrowleaf Sida: 80
[2]; [22]
  Plant response rating, Arrowleaf Sida: 35
[2]; [33]
  Plant response rating, Arrowleaf Sida: 50
[2]; [24]
  Plant response rating, Arrowleaf Sida: 65
[2]; [34]
  Plant response rating, Arrowleaf Sida: 40
[2]; [25]
  Plant response rating, Arrowleaf Sida: 35
[3]; [19]
  Plant response rating, Dayflower, VA: 50
[3]; [20]
  Plant response rating, Dayflower, VA: 25
[3]; [21]
  Plant response rating, Dayflower, VA: 60
[3]; [22]
  Plant response rating, Dayflower, VA: 25
[3]; [33]
  Plant response rating, Dayflower, VA: 30
[3]; [24]
  Plant response rating, Dayflower, VA: 30
[3]; [34]
  Plant response rating, Dayflower, VA: 0
[3]; [25]
  Plant response rating, Dayflower, VA: 25
[4]; [28]
  Plant response rating, Johnsongrass: 40
[4]; [35]
  Plant response rating, Johnsongrass: 0
[4]; [29]
  Plant response rating, Johnsongrass: 0
[5]; [28]
  Plant response rating, Lambsquarters: 98
[5]; [35]
  Plant response rating, Lambsquarters: 0
[5]; [29]
  Plant response rating, Lambsquarters: 95
[6]; [28]
  Plant response rating, Nightshade: 98
[6]; [35]
  Plant response rating, Nightshade: 25
[6]; [29]
  Plant response rating, Nightshade: 65
[7]; [21]
  Plant response rating, Sandbur: 70
[7]; [22]
  Plant response rating, Sandbur: 75
[7]; [33]
  Plant response rating, Sandbur: 60
[7]; [24]
  Plant response rating, Sandbur: 40
[7]; [34]
  Plant response rating, Sandbur: 0
[7]; [25]
  Plant response rating, Sandbur: 40
[8]; [21]
  Plant response rating, Soybean: 20
[8]; [22]
  Plant response rating, Soybean: 0
[8]; [33]
  Plant response rating, Soybean: 0
[8]; [24]
  Plant response rating, Soybean: 0
[8]; [34]
  Plant response rating, Soybean: 0
[8]; [25]
  Plant response rating, Soybean: 0
[9]; [28]
  Plant response rating, Surinam Grass: 40
[9]; [35]
  Plant response rating, Surinam Grass: 0
[9]; [29]
  Plant response rating, Surinam Grass: 30
[10]; 16 g ai/ha, visual, scale 0 no effect to 100 complete control
  Plant response rating, Waterhemp_RES1: 60
[10]; [31]
  Plant response rating, Waterhemp_RES1: 70
[10]; [28]
  Plant response rating, Waterhemp_RES1: 90
[11]; [31]
  Plant response rating, Waterhemp_RES2: 50
[11]; [28]
  Plant response rating, Waterhemp_RES2: 60
